Numbered stars: 1 amine (or outer) side, 2 acyl side, 3 side chain; on linkers, the order of the positions; unused ones are H or OH. Square brackets hold non-standard residues; d marks the D form. Side chains are listed from the residue outwards. Peptide text beside a SMILES is read from it. * marks the point of attachment. Decanoyl(10-(4-HOOC-PhO)) = O=C(O)c1ccc(OCCCCCCCCCC(=O)*)cc1; Lac(3-(imidazol-4-yl)) = O=C(O)[C@@H](O)Cc1c[nH]cn1; γGlu = O=C(O)[C@H](CCC(=O)[*:2])N[*:1]; NMeV = CN[C@H](C(=O)O)C(C)C; AEEA = NCCOCCOCC(=O)O; Sar = CNCC(=O)O
How the values were obtained:
[1] = Prodrug half-life in vitro, buffer method; assay type: physicochemical; settings: 25 mM phosphate buffer pH 7.4, 37° C., 1.0 mg/mL; UPLC_A, or UPLC_B for compounds marked *; read-out: T½ in buffer (converted)
Experimental: (§1) The purpose of this example is to test the in vitro half-lives (T½) of the GLP-1 prodrugs of the invention, in comparison to conceptually different prodrugs. In what follows two in vitro methods are described, viz. a method conducted in buffer, and a method conducted in plasma.
Buffer: 25 mM Phosphate (Ionic strength: 154 mM, pH 7.4 at 37° C.)
NaH2PO4.2H2O (1.95 g, 12.5 mmol) and NaCl (2.61 g, 44.7 mmol) were dissolved in millipore water (approximately 450 mL) and adjusted to pH=7.44 at approximately 20° C. with concentrated NaOH and 1 M NaOH. Water was added to 500.00 mL.
The compound to be tested was dissolved in buffer to a concentration of 1.0 mg/mL and incubated at 37° C. Samples were taken at adequate intervals and the % parent drug compared to prodrug formed as function of time was evaluated by the UPLC method as referred to in Table 1 by comparing the areas under the curves for the two corresponding peaks. These UPLC methods are described in the general experimental section above (UPLC_A, and UPLC_B).
(§2) The half life of the prodrug (T½) was calculated from the slope of a linear fit to the curve of ln(% prodrug (Y)) as a function of time (t), as follows: Y=÷αt+k Math. 1 T½=ln(2)/α Math. 2 Plasma Method Buffer: 200 mM Phosphate, pH 7.4 at 37° C.
The resulting half-lives are set out in Table 1 below. For comparison, the T½ in buffer of native GLP-1(7-37) (His7 variant of SEQ ID NO: 1) was 13 minutes (0.2 hours).

[2] = Prodrug half-life in vitro, plasma method (minipig heparin plasma); assay type: in vitro ADME; settings: minipig heparin plasma 800 μL + 200 μL 200 mM phosphate pH 7.4, 37° C.; UPLC_A, or UPLC_B for compounds marked *; read-out: T½ in plasma (converted)
Experimental: as §1, §2
NaH2PO4.2H2O (15.61 g, 100 mmol) was dissolved in milliQ water (approximately 450 mL) and adjusted to pH=7.44 at approximately 20° C. with concentrated NaOH (aq) and 1 M NaOH (aq). Water was added to 500.00 mL.
Serum: Minipig Serum, Heparin-Plasma
Fresh blood was tapped from minipig into 9 mL LH lithium heparin Vacuette tubes from Greiner bio-one (catalogue number 455084). After cooling on ice it was centrifuged (10 min, 4° C., 3000 rpm/1942G) and the supernatant isolated and kept at −18° C. before use.
100 nmol of the compound to be tested was dissolved in 200 μL buffer, added to 800 μL plasma (centrifuged), and incubated at 37° C. Samples (50 μL) were drawn at appropriate intervals into 150 μL absolute EtOH. After a short stirring the sample was centrifuged and the supernatant transferred to the UPLC vial (10 μL injection).
The % parent drug compared to prodrug formed as a function of time was evaluated by UPLC, and the half-life calculated, both in the same way as described above under the Buffer method.

Row | SMILES | half-life at 1 mg/mL [1] | half-life [2] | half-life [1]
1 | CC[C@H](C)[C@H](NC(=O)[C@H](Cc1ccccc1)NC(=O)[C@H](CCC(=O)O)NC(=O)[C@H](CCCNC(=N)N)NC(=O)[C@@H](NC(=O)[C@H](C)NC(=O)[C@H](CCC(N)=O)NC(=O)[C@H](CCC(=O)O)NC(=O)[C@H](CCC(=O)O)NC(=O)[C@H](CC(C)C)NC(=O)[C@H](Cc1ccc(O)cc1)NC(=O)[C@H](CCCCNC(=O)COCCOCCNC(=O)COCCOCCNC(=O)CC[C@H](NC(=O)CCCCCCCCCOc1ccc(C(=O)O)cc1)C(=O)O)NC(=O)[C@H](CO)NC(=O)[C@@H](NC(=O)[C@H](CC(=O)O)NC(=O)[C@H](CO)NC(=O)[C@@H](NC(=O)[C@H](Cc1ccccc1)NC(=O)[C@@H](NC(=O)CNC(=O)[C@H](CCC(=O)O)NC(=O)[C@H](C)NC(=O)[C@H](Cc1c[nH]cn1)OC(=O)[C@@H](NC(=O)[C@@H](N)C(C)C)C(C)C)[C@@H](C)O)[C@@H](C)O)C(C)C)C(C)C)C(=O)N[C@@H](C)C(=O)N[C@@H](CCCCNC(=O)COCCOCCNC(=O)COCCOCCNC(=O)CC[C@H](NC(=O)CCCCCCCCCOc1ccc(C(=O)O)cc1)C(=O)O)C(=O)N[C@@H](CC(C)C)C(=O)N[C@H](C(=O)N[C@@H](CCCNC(=N)N)C(=O)NCC(=O)N[C@@H](CCCNC(=N)N)C(=O)NCC(=O)O)C(C)C [Example 2a] (H-VV[Lac(3-(imidazol-4-yl))]AEGTFTSDVSK([AEEA-AEEA-γGlu-Decanoyl(10-(4-HOOC-PhO))])YLEEQAVREFIAK([AEEA-AEEA-γGlu-Decanoyl(10-(4-HOOC-PhO))])LVRGRG-OH) | 10.5 h | 4.6 h | 
2 | CC[C@H](C)[C@H](NC(=O)[C@H](Cc1ccccc1)NC(=O)[C@H](CCC(=O)O)NC(=O)[C@H](CCCNC(=N)N)NC(=O)[C@@H](NC(=O)[C@H](C)NC(=O)[C@H](CCC(N)=O)NC(=O)[C@H](CCC(=O)O)NC(=O)[C@H](CCC(=O)O)NC(=O)[C@H](CC(C)C)NC(=O)[C@H](Cc1ccc(O)cc1)NC(=O)[C@H](CCCCNC(=O)COCCOCCNC(=O)COCCOCCNC(=O)CC[C@H](NC(=O)CCCCCCCCCOc1ccc(C(=O)O)cc1)C(=O)O)NC(=O)[C@H](CO)NC(=O)[C@@H](NC(=O)[C@H](CC(=O)O)NC(=O)[C@H](CO)NC(=O)[C@@H](NC(=O)[C@H](Cc1ccccc1)NC(=O)[C@@H](NC(=O)CNC(=O)[C@H](CCC(=O)O)NC(=O)[C@H](C)NC(=O)[C@H](Cc1c[nH]cn1)OC(=O)[C@@H](NC(=O)[C@@H](NC)C(C)C)C(C)C)[C@@H](C)O)[C@@H](C)O)C(C)C)C(C)C)C(=O)N[C@@H](C)C(=O)N[C@@H](CCCCNC(=O)COCCOCCNC(=O)COCCOCCNC(=O)CC[C@H](NC(=O)CCCCCCCCCOc1ccc(C(=O)O)cc1)C(=O)O)C(=O)N[C@@H](CC(C)C)C(=O)N[C@H](C(=O)N[C@@H](CCCNC(=N)N)C(=O)NCC(=O)N[C@@H](CCCNC(=N)N)C(=O)NCC(=O)O)C(C)C [Example 2] (H-[NMeV]V[Lac(3-(imidazol-4-yl))]AEGTFTSDVSK([AEEA-AEEA-γGlu-Decanoyl(10-(4-HOOC-PhO))])YLEEQAVREFIAK([AEEA-AEEA-γGlu-Decanoyl(10-(4-HOOC-PhO))])LVRGRG-OH) | 42.5 h | 27.5 h | 
3 | CC[C@H](C)[C@H](NC(=O)[C@H](Cc1ccccc1)NC(=O)[C@H](CCC(=O)O)NC(=O)[C@H](CCCNC(=N)N)NC(=O)[C@@H](NC(=O)[C@H](C)NC(=O)[C@H](CCC(N)=O)NC(=O)[C@H](CCC(=O)O)NC(=O)[C@H](CCC(=O)O)NC(=O)[C@H](CC(C)C)NC(=O)[C@H](Cc1ccc(O)cc1)NC(=O)[C@H](CCCCNC(=O)COCCOCCNC(=O)COCCOCCNC(=O)CC[C@H](NC(=O)CCCCCCCCCOc1ccc(C(=O)O)cc1)C(=O)O)NC(=O)[C@H](CO)NC(=O)[C@@H](NC(=O)[C@H](CC(=O)O)NC(=O)[C@H](CO)NC(=O)[C@@H](NC(=O)[C@H](Cc1ccccc1)NC(=O)[C@@H](NC(=O)CNC(=O)[C@H](CCC(=O)O)NC(=O)[C@H](C)NC(=O)[C@H](Cc1c[nH]cn1)OC(=O)[C@@H](NC(=O)CNC)C(C)C)[C@@H](C)O)[C@@H](C)O)C(C)C)C(C)C)C(=O)N[C@@H](C)C(=O)N[C@@H](CCCCNC(=O)COCCOCCNC(=O)COCCOCCNC(=O)CC[C@H](NC(=O)CCCCCCCCCOc1ccc(C(=O)O)cc1)C(=O)O)C(=O)N[C@@H](CC(C)C)C(=O)N[C@H](C(=O)N[C@@H](CCCNC(=N)N)C(=O)NCC(=O)N[C@@H](CCCNC(=N)N)C(=O)NCC(=O)O)C(C)C [Example 1] (H-[Sar]V[Lac(3-(imidazol-4-yl))]AEGTFTSDVSK([AEEA-AEEA-γGlu-Decanoyl(10-(4-HOOC-PhO))])YLEEQAVREFIAK([AEEA-AEEA-γGlu-Decanoyl(10-(4-HOOC-PhO))])LVRGRG-OH) | 9.6 h | 3.6 h | 
4 | CC[C@H](C)[C@H](NC)C(=O)N[C@H](C(=O)O[C@@H](Cc1c[nH]cn1)C(=O)N[C@@H](C)C(=O)N[C@@H](CCC(=O)O)C(=O)NCC(=O)N[C@H](C(=O)N[C@@H](Cc1ccccc1)C(=O)N[C@H](C(=O)N[C@@H](CO)C(=O)N[C@@H](CC(=O)O)C(=O)N[C@H](C(=O)N[C@@H](CO)C(=O)N[C@@H](CCCCNC(=O)COCCOCCNC(=O)COCCOCCNC(=O)CC[C@H](NC(=O)CCCCCCCCCOc1ccc(C(=O)O)cc1)C(=O)O)C(=O)N[C@@H](Cc1ccc(O)cc1)C(=O)N[C@@H](CC(C)C)C(=O)N[C@@H](CCC(=O)O)C(=O)N[C@@H](CCC(=O)O)C(=O)N[C@@H](CCC(N)=O)C(=O)N[C@@H](C)C(=O)N[C@@H](C)C(=O)N[C@@H](CCCCNC(=O)COCCOCCNC(=O)COCCOCCNC(=O)CC[C@H](NC(=O)CCCCCCCCCOc1ccc(C(=O)O)cc1)C(=O)O)C(=O)N[C@@H](CCC(=O)O)C(=O)N[C@@H](Cc1ccccc1)C(=O)N[C@H](C(=O)N[C@@H](C)C(=O)N[C@@H](Cc1c[nH]c2ccccc12)C(=O)N[C@@H](CC(C)C)C(=O)N[C@H](C(=O)N[C@@H](CCC(N)=O)C(=O)NCC(=O)N[C@@H](CCCNC(=N)N)C(=O)NCC(=O)O)C(C)C)[C@@H](C)CC)C(C)C)[C@@H](C)O)[C@@H](C)O)C(C)C [Example 5] |  | 32.2 h | 37.9 h
5 | CC[C@H](C)[C@H](N)C(=O)N[C@H](C(=O)O[C@@H](Cc1c[nH]cn1)C(=O)N[C@@H](C)C(=O)N[C@@H](CCC(=O)O)C(=O)NCC(=O)N[C@H](C(=O)N[C@@H](Cc1ccccc1)C(=O)N[C@H](C(=O)N[C@@H](CO)C(=O)N[C@@H](CC(=O)O)C(=O)N[C@H](C(=O)N[C@@H](CO)C(=O)N[C@@H](CCCCNC(=O)COCCOCCNC(=O)COCCOCCNC(=O)CC[C@H](NC(=O)CCCCCCCCCOc1ccc(C(=O)O)cc1)C(=O)O)C(=O)N[C@@H](Cc1ccc(O)cc1)C(=O)N[C@@H](CC(C)C)C(=O)N[C@@H](CCC(=O)O)C(=O)N[C@@H](CCC(=O)O)C(=O)N[C@@H](CCC(N)=O)C(=O)N[C@@H](C)C(=O)N[C@H](C(=O)N[C@@H](CCCNC(=N)N)C(=O)N[C@@H](CCC(=O)O)C(=O)N[C@@H](Cc1ccccc1)C(=O)N[C@H](C(=O)N[C@@H](C)C(=O)N[C@@H](CCCCNC(=O)COCCOCCNC(=O)COCCOCCNC(=O)CC[C@H](NC(=O)CCCCCCCCCOc1ccc(C(=O)O)cc1)C(=O)O)C(=O)N[C@@H](CC(C)C)C(=O)N[C@H](C(=O)N[C@@H](CCCNC(=N)N)C(=O)NCC(=O)N[C@@H](CCCNC(=N)N)C(=O)NCC(=O)O)C(C)C)[C@@H](C)CC)C(C)C)C(C)C)[C@@H](C)O)[C@@H](C)O)C(C)C [Example 3a] (H-IV[Lac(3-(imidazol-4-yl))]AEGTFTSDVSK([AEEA-AEEA-γGlu-Decanoyl(10-(4-HOOC-PhO))])YLEEQAVREFIAK([AEEA-AEEA-γGlu-Decanoyl(10-(4-HOOC-PhO))])LVRGRG-OH) | 7.5 h | 5 h | 

Source: patent publication US9452225B2, “GLP-1 prodrugs” (Novo Nordisk A/S, priority 2012, dated 2016)
